Series [1] concerns the target T1, PAR1 (Homo sapiens, UniProt P25116).
T1 construct: delivered intravenously in 100 patients with coronary artery disease (CAD) and acute coronary syndrome (ACS) undergoing cardiac catheterization; endogenous in cells; host or cells: patients of the TRIP-PCI trial (platelets ex vivo; whole body in vivo)
T1 sequence (P25116 22-425): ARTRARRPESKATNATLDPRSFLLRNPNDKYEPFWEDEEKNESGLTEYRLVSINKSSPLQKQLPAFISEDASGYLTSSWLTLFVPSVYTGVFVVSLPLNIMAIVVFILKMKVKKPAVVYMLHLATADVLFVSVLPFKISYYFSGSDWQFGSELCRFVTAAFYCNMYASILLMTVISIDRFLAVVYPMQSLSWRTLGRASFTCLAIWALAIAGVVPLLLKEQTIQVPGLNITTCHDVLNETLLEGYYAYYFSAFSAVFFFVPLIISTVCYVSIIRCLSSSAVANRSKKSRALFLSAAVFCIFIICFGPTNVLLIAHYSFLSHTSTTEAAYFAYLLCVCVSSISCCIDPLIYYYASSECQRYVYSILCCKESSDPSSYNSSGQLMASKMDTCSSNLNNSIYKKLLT
The note with it: subjects with coronary artery disease; cited from earlier work.

Series [2] deals with T1, PAR1. The note with it: cited from earlier work.
Series [3] deals with T2, PAR1 (Mus musculus, UniProt P30558).
T2 construct: endogenous in cells; host or cells: male C57BL/6N mice, in vivo
T2 sequence (P30558 22-430): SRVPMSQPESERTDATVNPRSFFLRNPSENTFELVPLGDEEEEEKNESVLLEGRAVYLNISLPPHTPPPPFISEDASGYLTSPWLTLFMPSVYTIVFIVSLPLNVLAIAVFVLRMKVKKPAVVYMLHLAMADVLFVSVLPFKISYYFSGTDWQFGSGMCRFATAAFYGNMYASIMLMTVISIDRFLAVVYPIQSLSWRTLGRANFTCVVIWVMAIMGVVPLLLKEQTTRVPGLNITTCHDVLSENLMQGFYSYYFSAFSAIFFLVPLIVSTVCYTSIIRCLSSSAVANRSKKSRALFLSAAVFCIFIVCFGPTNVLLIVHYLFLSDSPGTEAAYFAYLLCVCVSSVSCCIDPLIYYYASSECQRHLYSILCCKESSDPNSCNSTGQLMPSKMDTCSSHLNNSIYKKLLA
Briefly: echocardiography after 3 days reperfusion following 30 min myocardial ischemia in mice. The class given is in vivo. The note with it: 10 mg/kg sc once daily, n=4. The protocol:
A role of PAR1 in directly mediating cardiac ischemic myonecrosis—independent of established platelet-dependent effects (Strande et al., Basic Res. Cardiol. 102(4):350-358, 2007)—was also examined. […] Mice (n=7) were treated with vehicle or 10 mg/kg PZ-128 (subcutaneous; sc) just prior to ischemic injury. As shown in FIG. 1a-d, PZ-128-treated mice had 51-62% reductions in mean cardiac Infarct Area (p<0.01), Area At Risk (p<0.01), and Total Ischemic Area (p<0.0001) compared to vehicle-treated mice. […] Using echocardiography after 3 days of reperfusion, there was a significant increase in left ventricular mass (p<0.05) in vehicle compared to PZ-128 treated cohorts, with no difference in left ventricular mass between baseline and 3 days in the PZ-128 cohort (FIG. 2). […] Previous pharmacokinetic studies of subcutaneously administered PZ-128 in mice were the basis of this 10 mg/kg dose in mice (Cisowski et al., Am. J. Pathol. 179(1):513-523, 2011), selected to match the 0.3-0.5 mg/kg doses administered in humans.
A subset of male C57BL6N mice from each group subjected to 30 min left coronary artery ischemia (FIGS. 1A-1E) were reperfused for 3 days (n=4 vehicle, n=4 10 mg/kg PZ-128 sc once daily).

Series [4] deals with T1, PAR1. Briefly: TRIP-PCI phase 2 study in patients with CAD/ACS undergoing cardiac catheterization. Type of series: in vivo. The note with it: 9 patients with heart failure, EFs 30-53%. The protocol: TRIP-PCI was a multicenter, randomized, double-blind placebo-controlled phase 2 study that examined the safety, tolerability, and efficacy of PZ-128 at two dose levels (0.3 and 0.5 mg/kg, versus placebo, 1:1:1), delivered intravenously in 100 patients with coronary artery disease (CAD) and acute coronary syndrome (ACS) undergoing cardiac catheterization (Kuliopulos et al., Arterioscler. Thromb. Vasc. Biol 40(12):2990-3003, 2020). PAR1 inhibitors are intended to suppress thrombin-induced platelet activation to reduce damage during percutaneous coronary intervention (PCI) and ACS, potentially reducing the risk of myocardial infarction, stroke, and serious adverse events (Mackman et al., Nat. Rev. Drug Discov. 19(5):333-352, 2020). PZ-128 clinical trial participants received a single 2-h intravenous infusion of PZ-128 or placebo started just prior to catheterization along with standard antiplatelet therapy. […] The majority of events occurred within the first 24 h, with a nonsignificant decrease in hazard ratio (HR=0.81) of a MACE/myonecrosis event in the PZ-128 treated groups versus placebo. […]

Entries after “also recorded” stand apart in the source; their conditions may differ. Where a SMILES comes first, the peptide text is derived from it. The star is where a group is joined. Palmitoyl = CCCCCCCCCCCCCCCC(=O)*

As to `CCCCCCCCCCCCCCCC(=O)N[C@@H](CCCCN)C(=O)N[C@@H](CCCCN)C(=O)N[C@@H](CO)C(=O)N[C@@H](CCCNC(=N)N)C(=O)N[C@@H](C)C(=O)N[C@@H](CC(C)C)C(=O)N[C@@H](Cc1ccccc1)C(N)=O` [PZ-128, Palmitate-KKSRALF-NH2] (Palmitoyl-KKSRALF-NH2), the “platelet activation and hemostasis in phase 1” value on PAR1 [1] was “suppresses platelet activation without effects on hemostasis”. The “PAR1 aggregation response recovered” value at PAR1 [2] (at 14 days post-dose) is 50%. Also, at PAR1 [2] (post-dose), the “time at which inhibition of SFLLRN-induced platelet aggregation could be detected” value is reported as at most 1 h and the “time of peak inhibition of SFLLRN-induced platelet aggregation” value is 24 h. Besides, on PAR1 [3], the “ejection fraction at 3 days compared to baseline” value was “no significant reductions; also recorded: maintained baseline”; the “fractional shortening at 3 days compared to baseline” value is reported as “no significant reductions; also recorded: maintained baseline”; the “left ventricular mass, baseline vs 3 days” value is on record as “no difference; also recorded: no significant differences”. In addition, at PAR1 [4], the “tolerability in heart failure patients” value was “tolerated well”.
